Assays:
[1] = test system: Bacteroides thetaiotaomicron (Bt); assay: In vitro growth of Bt in minimal medium with the glycan as sole carbohydrate (OD600); format: cell-based; conditions: glycan 1.5% w/v as sole carbon source
Procedure: The transcriptome was analyzed near the midpoints of the two logarithmic growth phases in MM-HMO (n=2 biological replicates/growth phase, four datasets total). As a baseline for comparison, we used previously reported in vitro datasets of Bt grown in MM-glucose. […] Within these combined 253 genes (132 were commonly up regulated in both phases), 137 genes had ≧5-fold change in expression when compared to MM-glucose (see Table S1 for complete list of genes).
(§1) Bacterial Strains and Culture conditions. Type strains for Bacteroides species were used unless otherwise indicated. Bacteroides species were grown in tryptone-yeast extract-glucose (TYG) medium and minimal medium (MM) as described previously. Bif. infantis was grown in Man-Rogosa-Sharpe (MRS) medium (Oxoid LTD., Basingstoke, Hampshire, England) and minima medium consisting of modified MRS, which lacks glucose. […] OD600 was monitored using a BioTek PowerWave 340 plate reader (BioTek, Winoosky, Vt., United States) every 30 min, at 37° C. anaerobically (6% H2, 20% CO2, 74% N2).
Bacterial Strains and Culture Conditions. Type strains were used unless otherwise indicated. Bacteroides species were grown in tryptone-yeast extract-glucose (TYG) medium and minimal medium (MM). […] OD600 was monitored using a BioTek PowerWave 340 plate reader (BioTek, Winooski, Vt.) every 30 min, at 37_C anaerobically (6% H2, 20% CO2, 74% N2).

[2] = test system: Bt and Bi fecal community; assay: Competitive colonization of gnotobiotic mice biassociated with Bt and B. infantis, LNnT in the water; format: in vivo, germ-free Swiss-Webster mice
Procedure: Two groups of 6-week-old germ-free mice were fed a polysaccharide-deficient diet, forcing a reliance on host mucus glycans for carbon and energy. One group received LNnT supplementation in the water (1% w/v; average consumption of 75 mg of LNnT daily), the control group received plain water.
After one day of LNnT feeding, both groups were colonized with equivalent quantities of Bt and Bi (10^8 CFU each). At day 6 post-inoculation, the group receiving LNnT was switched to normal water; at day 15 post-inoculation, LNnT was readministered for 3 additional days. Total bacterial colonization density was determined by assessing the CFUs in feces over the course of the 18 day experiment. […] LNnT supplementation was withdrawn on day 6 and colonization density was determined on days 7, 8, 9, 12, and 15 post colonization (1, 2, 3, 6, and 9 days after removing LNnT from the water). […] At day 3 post withdrawal of LNnT, Bi representation was 3.9±0.2% compared to 41.5±6.4% just prior to withdrawal (p=0.006, day 6 versus day 9, n=4 mice). LNnT was reintroduced into the water on day 15, and bacterial colonization was monitored at days 16, 17, and 18 post colonization. Two days after LNnT reintroduction, Bi expanded from 0.5±0.5% at day 15 to 49.9±2% at day 17 (p=0.012, day 15 versus day 17, n=4 mice). By day 18, Bi represented 25.9±9.6% of the community in LNnT-fed mice, compared to 1.9±1.5% in the control group (p=0.014, n=4 mice) (FIG. 16C).
Competitive Colonization of Gnotobiotic Mouse. Germ-free Swiss-Webster mice were reared in gnotobiotic isolators and fed an autoclaved polysaccharide-deficient diet in accordance with A-PLAC, the Stanford IACUC. Mice were biassociated using oral gavage (10^8 CFU of each species). Subsequent community enumerations from mice were determined from freshly collected feces, by selective plating of serial dilutions in RCM agar and BHI-blood agar supplemented with gentamicin ([…]). Significant differences between sample groups were determined using Student's t test. Synthetic LNnT (Glycom A/S, Denmark) was purified by crystallization to a final purity of >99%. Characterization was performed using multiple methods, including NMR (1D and 2D) mass spectrometry, and HPLC.

Bif. infantis ATCC15697 = assay: In vitro growth of Bif. infantis in minimal medium with the glycan as carbon source; format: cell-based, Bifidobacterium longum subsp. infantis; conditions: minimal medium (modified MRS without glucose) with the glycan
Procedure: We next queried whether the redundancy in machinery employed for mucin and HMO consumption in Bt is also found in Bifidobacterium species that are well-adapted to HMO use. Therefore, we grew a strain known to be proficient at HMO-use, Bif. infantis ATCC15697 in MM-O-PMG.
as §1
B. thetaiotaomicron and Bifidobacterium infantis Differentially Consume the Structurally Similar Mucin Glycans and HMO. […] We grew an HMO-consuming Bifidobacterium strain that is abundant in the microbiota of breast-fed infants, Bi, in purified porcine mucin glycans (MM-O-PMG) to elucidate its competence in mucin consumption. […]
Bacterial Strains and Culture Conditions. […] OD600 was monitored using a BioTek PowerWave 340 plate reader (BioTek, Winooski, Vt.) every 30 min, at 37_C anaerobically (6% H2, 20% CO2, 74% N2).

Bt VPI-5482 genes / PULs = assay: Whole genome transcriptional profiling of Bt (GeneChip) relative to MM-glucose; format: cell-based, Bacteroides thetaiotaomicron; conditions: compared to MM-glucose
Procedure: We grew Bt in minimal medium (MM) containing HMO (1.5% w/v) as the sole carbohydrate to investigate if this strain consumes human milk glycans in vitro. […] Next, we defined the transcriptional response of Bt during HMO consumption using whole genome transcriptional profiling with a custom Bt VPI-5482 GeneChip that represent >98% of this organism's protein coding genes. The transcriptome was analyzed near the midpoints of the two logarithmic growth phases in MM-HMO (n=2 biological replicates/growth phase, four datasets total). As a baseline for comparison, we used previously reported in vitro datasets of Bt grown in MM-glucose.
We wished to identify which portion of the observed Bt transcriptional response in MM-HMO was due to the complex oligosaccharides versus simple core sugars, lactose and galactose. Therefore, we performed transcriptional profiling of Bt grown in MM-galactose and MM-lactose (n=2 mid-log phase datasets for each of these monophasic growths; see FIG. 8 for growth curves and sampling timepoints).
Whole Genome Transcriptional Profiling. […] GeneChip data from bacteria growth in different carbon sources were normalized using R program by RMA-MS and statistical significance for differential gene expression was determined using SAM [45]. […]

Bt = assay: Sialic acid content determination in MM-HMO after Bt growth; format: cell-based, Bacteroides thetaiotaomicron
Procedure: Twelve of the 21 HMO-specific Bf genes were distributed within two loci that are dedicated to sialic acid acquisition and catabolism (FIG. 16B). […] To confirm that Bf does in fact consume sialic acids from HMOs, sialic acid content in the MM-HMO after growth was measured before and after acid hydrolysis using derivatization with 1,2-diamino-4,5-methylenedioxybenzene followed by reverse phase HPLC.
(§2) Sialic Acid Content Determination. Culture supernatant was isolated after growth in MM-HMO and clarified by centrifugation and filtration. Sialic acid concentrations were determined by the Glycotechnology Core Facility UCSD (University of California, San Diego, San Diego, Calif.), using the […] DMB labeling kit protocol (Prozyme, San Leandro, Calif.).

B. fragilis = assay: Sialic acid content determination in MM-HMO after B. fragilis growth (DMB derivatization, RP-HPLC); format: cell-based, Bacteroides fragilis
Procedure: Ten of the 21 genes in the HMO-specific B. fragilis response were distributed within two loci that are dedicated to sialic acid acquisition and catabolism (FIG. 6B).
Sialic acid content determination. B. fragilis culture supernatant was isolated after growth in MM-HMO and clarified by centrifugation and filtration. Sialic acid concentrations were determined by the Glycotechnology Core Facility UCSD (University of California, San Diego, Calif., United States). Briefly, sialic acids were released by acid hydrolysis at 80 C for 3 hours in 2M acetic acid, collected by ultra-filtration, and derivatized with DMB (1,2-diamino-4,5-methylenedioxybenzene). The resulting fluorescent sialic acids derivatives were analyzed by RP-HPLC with on-line fluorescence detection, and identification was based on standards run in parallel.
as §2

SMILES: CC(=O)N[C@H]1[C@H](O[C@H]2[C@@H](O)[C@@H](CO)O[C@@H](O[C@H]3[C@H](O)[C@@H](O)C(O)O[C@@H]3CO)[C@@H]2O)O[C@H](CO)[C@@H](O[C@@H]2O[C@H](CO)[C@H](O)[C@H](O)[C@H]2O)[C@@H]1O (mixture of isomers) [LNnT, lacto-N-neotetraose]
- growth of Bt [1]: did not
- time for Bi to drop to levels similar to controls after removal of LNnT ([2]; LNnT withdrawn on day 6): ≤ 2 days
- Bi relative to Bt in fecal community ([2]; day 6, LNnT 1% w/v in water, polysaccharide-deficient diet): 41.5±6.4%
- Bi representation ([2]; day 9, day 3 post withdrawal of LNnT): 3.9±0.2%
- Bi representation ([2]; day 15, before LNnT reintroduction): 0.5±0.5%
- Bi representation ([2]; day 17, two days after LNnT reintroduction): 49.9±2%
- Bi share of the community ([2]; day 18, LNnT-fed mice): 25.9±9.6%
- growth of Bif. infantis (Bif. infantis ATCC15697): grew efficiently reaching a high OD

SMILES: OC[C@H]1O[C@@H](O[C@H]2[C@H](O)[C@@H](O)C(O)O[C@@H]2CO)[C@H](O)[C@@H](O)[C@H]1O (stereo partly drawn) [lactose]
- number of Bt genes up regulated at least 5-fold (Bt VPI-5482 genes / PULs): 34 genes

SMILES: O=C[C@H](O)[C@@H](O)[C@@H](O)[C@H](O)CO [galactose]
- number of Bt genes up regulated at least 5-fold (Bt VPI-5482 genes / PULs): 40 genes

SMILES: CC(=O)N[C@H]1[C@H]([C@H](O)[C@H](O)CO)OC(O)(C(=O)O)C[C@@H]1O (stereo partly drawn) [Neu5Ac, N-acetylneuraminic acid]
- Neu5Ac use by Bt (Bt): unable to catabolize it
- Neu5Ac content after B. fragilis growth (B. fragilis): completely depleted
